{
  "source": "patent US20070010484A1",
  "about": "“Method for treating or inhibiting the effects of injuries or diseases that result in neuronal degeneration and method for promoting neurogenesis” (YEDA RESEARCH AND DEVELOPMENT CO. LTD., priority 2003, published 2007)",
  "key": {"PC12 cells [1]": {"tested_on": "PC12 cells", "test": "PC12 cell viability after glutamate, XTT assay", "type": "cell-based, rat", "details": "disaccharides 1 to 50 μg/ml for 45 min, glutamate 10^−3 M 15 min, XTT after 24 h", "experimental": "PC12 cell line. Rat pheochromocytoma (PC12) cells were cultured in DMEM containing horse serum and FCS, both at 8% (culture medium) or at 1% (differentiation medium).\nCell viability assay. PC12 cells were seeded on collagen-coated 96-well plates at a density of 10^4 cells per well (in differentiation medium containing 100 ng/ml NGF). The cells were incubated with CSPG-DS or other disaccharides at the indicated concentrations for 45 min, then washed with PBS and exposed to glutamate (10^−3 M) for 15 min. The glutamate solution was washed away and replaced with DMEM for a further 24 h of incubation. The number of viable cells was then determined with the XTT viability kit according to the manufacturer's instructions."}, "NF-κB": {"tested_on": "NF-κB", "test": "Western blot of NF-κB in T-cell nuclear extracts", "type": "cell-based, human", "details": "T cells activated by anti-CD3 Ab", "experimental": "Western blot analysis of T-cell nuclear extracts. Purified T cells (5×10^6) were preincubated for 2 h with different concentrations of CSPG-DS. The cells were then replated at the same CSPG-DS concentration on 24-well plates pre-coated for 24 h with anti-CD3 mAb. The T cells were lysed in 10 mM HEPES, 1.5 mM MgCl2, 1 mM dithiothreitol, 1 mM PMSF, and 0.5% Nonidet P-40 (buffer A). The lysates were incubated on ice for 10 min and centrifuged at 2000 rpm for 10 min at 4° C. The supernatants (cytoplasmic extracts) were transferred and the pellets (nuclei) were suspended in buffer containing 30 mM HEPES, 450 mM NaCl, 25% glycerol, 0.5 mM EDTA, 6 mM dithiothreitol, 12 mM MgCl2 1 mM PMSF, 10 μg/ml leupeptin, 10 μg/ml pepstatin, and 1% phosphatase inhibitor cocktail (buffer B), and the suspension was incubated on ice for 30 min. The lysates were cleared by centrifugation (30 min, 14×10^3 rpm, 4° C.), and the resulting supernatants were analyzed for protein content. Sample buffer was added, the mixture was boiled, and the samples containing equal amounts of proteins were separated on 10% SDS-PAGE gel and transferred to nitrocellulose membranes. […]"}, "human T cells": {"tested_on": "human T cells", "test": "T-cell chemotaxis towards SDF-1α, transwell", "type": "cell-based", "details": "2 h pretreatment, FN-coated transwell, 3 h, relative to untreated cells", "experimental": "Human T cells. T cells from the peripheral blood of healthy donors were isolated by negative selection using a RosetteSep™ antibody cocktail containing mabs against CD16, CD19, CD36, and CD56 (StemCell Technologies, Vancouver, BC). After incubation with the cocktail for 20 min at room temperature, blood samples were diluted in PBS with 2% fetal bovine serum, loaded on a Ficoll column (ICN Biomedical, Aurora, Ohio), and centrifuged at 1200× g for 20 min at room temperature. The cells were removed from the Ficoll column, washed, and cultured in RPMI containing antibiotics and 10% heat-inactivated FCS. T-cell chemotaxis. Migration of purified human T cells was measured with a transwell apparatus (6.5 mm diameter; Corning, New York, N.Y.) fitted with polycarbonate filters (pore size 5 μm). The filters separating the upper and lower chambers were pretreated with FN (20 μg/ml) for 1 h at 37° C. ^51[Cr]-labeled T cells were preincubated for 2 h with CSPG-DS at the indicated concentrations, and then suspended (2×10^6/ml) in RPMI containing 0.1% BSA, 0.1% L-glutamine, and antibiotics, and added to the upper chamber. The bottom chambers contained the same RPMI medium, with or without human SDF-1α (50 ng/ml). […]"}, "[2]": {"tested_on": "Organotypic hippocampal slice cultures (OHSC)", "test": "Organotypic hippocampal slice cultures, propidium iodide staining", "type": "cell-based", "details": "rat OHSCs, 2.5 μg/ml or 25 μg/ml, 24 h", "experimental": "Organotypic hippocampal slice cultures (OHSC): OHSC were prepared as described (Franklin and Paxinos, 1997) from rats brains (Lewis aged 8-10 days) CSPG-DSs were added to the OHSCs for 24 h. Propidium iodide (5 μg/ml; Sigma) was then added to the medium for 30 min. The brain slices were examined under a Zeiss laser-scanning confocal microscope (LSM510) or a Zeiss Axioplane 100 fluorescence light microscope."}, "PC12 cells [3]": {"tested_on": "PC12 cells", "test": "LPA-induced neurite retraction in differentiated PC12 cells", "type": "cell-based, rat", "experimental": "PC12 cell line: Rat pheochromocytoma (PC12) cells were cultured in DMEM containing 8% horse serum and either 8% FCS (culture medium) or 1% FCS (differentiation medium), and antibiotics. For assays of neurite outgrowth, the cells were plated (10^5 cell/well) on 13-mm glass coverslips, precoated with collagen (500 μg/ml) in 24-well plates. Treatment of PC12 cells with lysophosphatidic acid (LPA). PC12 cells were placed and were differentiated for 3 days in the presence of 100 ng/ml NGF, in collagen-precoated culture dishes (Corning). […] The cells were then fixed with 4% paraformaldehyde (PFA) and analyzed by Nomarski microscopy. The longest neurite of each cell was measured and the results are expressed as their mean±SEM."}, "[4]": {"tested_on": "retinal ganglion cells (RGCs)", "test": "Experimental autoimmune uveitis (EAU), RGC survival", "type": "in vivo", "details": "R16-immunized Lewis rats, i.p. on days 3, 6, 9, 12 and 17; counted 3 weeks after immunization; mean±SD", "experimental": "Induction of experimental autoimmune uveitis. To induce experimental autoimmune uveitis (EAU), Lewis rats were immunized with R16 (30 μg), a peptide derived from an ocular antigen IRBP emulsified in CFA containing 2.5 mg/ml M. tuberculosis. A total volume of 100 μl was injected s.c. into each rat at the root of the tail. Rats were then divided into three groups. On days 3, 6, 9, 12 and 17 after immunization the rats in the first group were injected i.p. with CSPG-DS (15 μg/rat), and rats in the second group were injected i.p. with methylprednisolone (MP. 30 mg/kg; Solu-Medrol, 125 mg/ml, Pharmacia & Upjohn, Puurs, Belgium). Rats in third group were left untreated."}, "[5]": {"details": "PC12 cells with LPA plus CSPG-DSs"}},
  "note": "“Also recorded” adds a separate entry of the source.",
  "data": [
    {"smiles": "CC(=O)N[C@H]1C(O)O[C@H](COS(=O)(=O)O)[C@H](O)[C@@H]1O[C@@H]1OC(C(=O)O)=C[C@H](O)[C@H]1O", "note": "(stereo partly drawn) [CSPG-DS, 2-acetoamido-2-deoxy-3-O-(β-D-gluco-4-enepyranosyluronic acid)-6-O-sulfo-D-galactose]", "values": [
      {"measurement": "survival of PC12 cells exposed to glutamate", "setting": "PC12 cells [1]", "value": "protected PC12 cells from glutamate toxicity"},
      {"measurement": "NF-κB levels in nuclei", "setting": "NF-κB", "value": "reduction"},
      {"measurement": "T-cell migration towards SDF-1α", "setting": "human T cells", "value": "reduced"},
      {"measurement": "neuronal loss (propidium iodide staining)", "setting": "[2]", "value": "significantly reduced"},
      {"measurement": "LPA-induced neurite collapse / retraction", "setting": "PC12 cells [3]; NGF-differentiated PC12 cells, LPA 1 μg/ml 20 min together with CSPG-DSs (5 or 50 μg/ml)", "value": "dose-dependent reversal of the retraction process; also recorded: prevented"},
      {"measurement": "mean neurite length", "setting": "PC12 cells [3]; [5]", "value": "beneficial effect"},
      {"measurement": "number of neurite-bearing cells", "setting": "PC12 cells [3]; [5]", "value": "beneficial effect"},
      {"measurement": "RGC loss relative to normal rats", "setting": "[4]", "value": "24±9", "unit": "%"}
    ]}
  ]
}
